Article PMC9506414, “Novel 2,6,9-Trisubstituted Purines as Potent CDK Inhibitors Alleviating Trastuzumab-Resistance of HER2-Positive Breast Cancers” (Pharmaceuticals, 2022)

Key:
Test in all cases: Kinome-wide inhibition profiling
Type in all cases: biochemical
[1] = molecular target: T1, ARAF (Homo sapiens, UniProt P10398)
T1 construct: purchased Reaction Biology Corp
Protocol: (§1) In vitro CDK12/cyclinK assays for all compounds and in vitro kinome-wide inhibition profiling of 30d at 10 μM were performed by a CRO company (Reaction Biology Corp., San Diego, CA, USA).

[2] = molecular target: T2, BRAF (Homo sapiens, UniProt P15056)
T2 construct: purchased Reaction Biology Corp
Protocol: as §1

[3] = molecular target: T3, BRK (Homo sapiens, UniProt Q13882)
T3 construct: purchased Reaction Biology Corp
Protocol: as §1

[4] = molecular target: T4, CAMK1g (Homo sapiens, UniProt Q96NX5)
T4 construct: purchased Reaction Biology Corp
Protocol: as §1

[5] = molecular target: T5, CAMKK1 (Homo sapiens, UniProt Q8N5S9)
T5 construct: purchased Reaction Biology Corp
Protocol: as §1

[6] = molecular target: T6, CDK7/cyclinH (Homo sapiens, UniProt P50613)
T6 construct: purchased Reaction Biology Corp
T6 sequence (P50613 whole entry): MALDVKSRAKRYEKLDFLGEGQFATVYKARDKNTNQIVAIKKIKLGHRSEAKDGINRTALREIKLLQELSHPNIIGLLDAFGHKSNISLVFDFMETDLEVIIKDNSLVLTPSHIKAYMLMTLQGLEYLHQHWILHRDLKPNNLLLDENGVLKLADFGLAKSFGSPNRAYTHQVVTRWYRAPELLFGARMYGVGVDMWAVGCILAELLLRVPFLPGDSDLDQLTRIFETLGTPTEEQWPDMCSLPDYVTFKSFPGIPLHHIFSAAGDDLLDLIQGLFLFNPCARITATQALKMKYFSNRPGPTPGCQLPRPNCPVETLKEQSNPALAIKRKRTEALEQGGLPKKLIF
T6 sequence (P51946 whole entry partner): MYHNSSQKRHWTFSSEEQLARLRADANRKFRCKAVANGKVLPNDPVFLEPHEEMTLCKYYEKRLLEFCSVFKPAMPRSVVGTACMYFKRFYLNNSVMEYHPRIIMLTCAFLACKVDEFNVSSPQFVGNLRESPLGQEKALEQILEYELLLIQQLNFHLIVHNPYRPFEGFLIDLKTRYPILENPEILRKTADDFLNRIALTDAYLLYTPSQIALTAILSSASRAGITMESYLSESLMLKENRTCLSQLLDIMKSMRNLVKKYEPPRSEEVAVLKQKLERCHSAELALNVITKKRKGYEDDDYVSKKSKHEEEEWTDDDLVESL
T6 sequence (P51948 whole entry partner): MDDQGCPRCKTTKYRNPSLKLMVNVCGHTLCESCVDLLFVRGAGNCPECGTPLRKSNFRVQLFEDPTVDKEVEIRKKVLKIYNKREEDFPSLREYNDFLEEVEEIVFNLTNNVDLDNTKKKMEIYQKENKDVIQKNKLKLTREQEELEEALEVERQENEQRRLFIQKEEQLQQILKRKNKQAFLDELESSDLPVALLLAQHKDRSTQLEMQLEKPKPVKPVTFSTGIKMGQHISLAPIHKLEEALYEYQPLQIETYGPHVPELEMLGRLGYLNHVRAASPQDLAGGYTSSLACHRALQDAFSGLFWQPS
Protocol: as §1

[7] = molecular target: T7, CLK4 (Homo sapiens, UniProt Q9HAZ1)
T7 construct: purchased Reaction Biology Corp
Protocol: as §1

[8] = molecular target: T8, DYRK4 (Homo sapiens, UniProt Q9NR20)
T8 construct: purchased Reaction Biology Corp
Protocol: as §1

[9] = molecular target: T9, EPHA2 (Homo sapiens, UniProt P29317)
T9 construct: purchased Reaction Biology Corp
Protocol: as §1

[10] = molecular target: T10, EPHA4 (Homo sapiens, UniProt P54764)
T10 construct: purchased Reaction Biology Corp
T10 sequence (P54764 20-986): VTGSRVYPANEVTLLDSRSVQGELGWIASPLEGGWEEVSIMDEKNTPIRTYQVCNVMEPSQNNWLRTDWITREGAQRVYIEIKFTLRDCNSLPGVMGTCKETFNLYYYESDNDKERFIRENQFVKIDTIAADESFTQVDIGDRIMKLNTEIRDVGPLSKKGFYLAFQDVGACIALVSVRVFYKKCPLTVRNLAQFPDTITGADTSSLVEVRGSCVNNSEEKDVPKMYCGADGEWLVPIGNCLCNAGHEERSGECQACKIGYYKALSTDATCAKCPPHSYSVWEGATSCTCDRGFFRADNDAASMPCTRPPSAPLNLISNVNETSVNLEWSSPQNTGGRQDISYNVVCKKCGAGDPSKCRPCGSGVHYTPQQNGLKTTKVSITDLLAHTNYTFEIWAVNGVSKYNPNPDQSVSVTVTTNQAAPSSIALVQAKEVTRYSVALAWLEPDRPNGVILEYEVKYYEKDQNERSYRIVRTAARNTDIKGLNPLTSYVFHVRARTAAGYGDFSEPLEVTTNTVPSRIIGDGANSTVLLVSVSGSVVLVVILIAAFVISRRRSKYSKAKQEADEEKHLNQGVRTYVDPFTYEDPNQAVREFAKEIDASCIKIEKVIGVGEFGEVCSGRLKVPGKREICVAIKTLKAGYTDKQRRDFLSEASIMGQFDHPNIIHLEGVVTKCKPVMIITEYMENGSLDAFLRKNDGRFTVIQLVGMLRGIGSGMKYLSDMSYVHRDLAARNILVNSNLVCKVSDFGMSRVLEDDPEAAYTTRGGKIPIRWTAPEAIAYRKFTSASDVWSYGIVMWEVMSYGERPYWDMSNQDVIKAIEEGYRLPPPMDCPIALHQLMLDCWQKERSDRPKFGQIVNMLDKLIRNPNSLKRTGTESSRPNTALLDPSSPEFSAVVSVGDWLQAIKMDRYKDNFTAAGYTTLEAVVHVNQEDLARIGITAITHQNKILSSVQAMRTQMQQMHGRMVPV
Protocol: as §1

[11] = molecular target: T11, ERBB2 (Homo sapiens, UniProt P04626)
T11 construct: purchased Reaction Biology Corp
Protocol: as §1

[12] = molecular target: T12, FGFR2 (Homo sapiens, UniProt P21802)
T12 construct: purchased Reaction Biology Corp
Protocol: as §1

[13] = molecular target: T13, FGR (Homo sapiens, UniProt P09769)
T13 construct: purchased Reaction Biology Corp
Protocol: as §1

[14] = molecular target: T14, FLT1 (Homo sapiens, UniProt P17948)
T14 construct: purchased Reaction Biology Corp
Protocol: as §1

[15] = molecular target: T15, GRK3 (Homo sapiens, UniProt P35626)
T15 construct: purchased Reaction Biology Corp
Protocol: as §1

[16] = molecular target: T16, GRK4 (Homo sapiens, UniProt P32298)
T16 construct: purchased Reaction Biology Corp
T16 sequence (P32298 whole entry): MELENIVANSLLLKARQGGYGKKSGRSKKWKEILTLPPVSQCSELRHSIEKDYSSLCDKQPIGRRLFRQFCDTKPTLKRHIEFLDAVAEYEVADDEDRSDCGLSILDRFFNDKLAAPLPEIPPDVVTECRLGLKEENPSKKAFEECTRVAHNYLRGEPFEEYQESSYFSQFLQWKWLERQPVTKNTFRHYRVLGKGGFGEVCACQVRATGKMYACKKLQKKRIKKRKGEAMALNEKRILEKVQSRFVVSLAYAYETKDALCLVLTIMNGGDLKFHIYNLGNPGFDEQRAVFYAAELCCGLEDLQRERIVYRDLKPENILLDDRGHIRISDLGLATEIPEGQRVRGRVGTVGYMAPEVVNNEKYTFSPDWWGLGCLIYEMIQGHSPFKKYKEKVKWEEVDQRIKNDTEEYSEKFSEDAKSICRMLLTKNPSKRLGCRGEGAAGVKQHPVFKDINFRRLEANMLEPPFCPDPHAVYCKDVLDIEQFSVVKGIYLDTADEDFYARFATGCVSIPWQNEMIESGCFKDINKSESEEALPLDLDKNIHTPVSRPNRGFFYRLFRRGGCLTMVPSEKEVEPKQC
Protocol: as §1

[17] = molecular target: T17, HIPK4 (Homo sapiens, UniProt Q8NE63)
T17 construct: purchased Reaction Biology Corp
Protocol: as §1

[18] = molecular target: T18, JNK2 (Homo sapiens, UniProt P45984)
T18 construct: purchased Reaction Biology Corp
Protocol: as §1

[19] = molecular target: T19, LATS2 (Homo sapiens, UniProt Q9NRM7)
T19 construct: purchased Reaction Biology Corp
Protocol: as §1

[20] = molecular target: T20, LRRK2 (Homo sapiens, UniProt Q5S007)
T20 construct: purchased Reaction Biology Corp
Protocol: as §1

[21] = molecular target: T21, MAP4K4 (Homo sapiens, UniProt O95819)
T21 construct: purchased Reaction Biology Corp
Protocol: as §1

[22] = molecular target: T22, MAP4K5 (Homo sapiens, UniProt Q9Y4K4)
T22 construct: purchased Reaction Biology Corp
Protocol: as §1

[23] = molecular target: T23, MAPKAPK5 (Homo sapiens, UniProt Q8IW41)
T23 construct: purchased Reaction Biology Corp
Protocol: as §1

[24] = molecular target: T24, MEK1 (Homo sapiens, UniProt Q02750)
T24 construct: purchased Reaction Biology Corp
Protocol: as §1

[25] = molecular target: T25, MEKK6 (Homo sapiens, UniProt O95382)
T25 construct: purchased Reaction Biology Corp
Protocol: as §1

[26] = molecular target: T26, MYLK2 (Homo sapiens, UniProt Q9H1R3)
T26 construct: purchased Reaction Biology Corp
Protocol: as §1

[27] = molecular target: T27, MYO3b (Homo sapiens, UniProt Q8WXR4)
T27 construct: purchased Reaction Biology Corp
Protocol: as §1

[28] = molecular target: T28, NEK2 (Homo sapiens, UniProt P51955)
T28 construct: purchased Reaction Biology Corp
Protocol: as §1

[29] = molecular target: T29, NEK7 (Homo sapiens, UniProt Q8TDX7)
T29 construct: purchased Reaction Biology Corp
Protocol: as §1

[30] = molecular target: T30, NIM1 (Homo sapiens, UniProt Q8IY84)
T30 construct: purchased Reaction Biology Corp
Protocol: as §1

[31] = molecular target: T31, PAK3 (Homo sapiens, UniProt O75914)
T31 construct: purchased Reaction Biology Corp
Protocol: as §1

[32] = molecular target: T32, PHKg2 (Homo sapiens, UniProt P15735)
T32 construct: purchased Reaction Biology Corp
Protocol: as §1

[33] = molecular target: T33, PIM1 (Homo sapiens, UniProt P11309)
T33 construct: purchased Reaction Biology Corp
Protocol: as §1

[34] = molecular target: T34, PIM2 (Homo sapiens, UniProt Q9P1W9)
T34 construct: purchased Reaction Biology Corp
Protocol: as §1

[35] = molecular target: T35, PKCb2 (Homo sapiens, UniProt P05771)
T35 construct: purchased Reaction Biology Corp
Protocol: as §1

[36] = molecular target: T36, PLK1 (Homo sapiens, UniProt P53350)
T36 construct: purchased Reaction Biology Corp
Protocol: as §1

[37] = molecular target: T37, PRKG1 (Homo sapiens, UniProt Q13976)
T37 construct: purchased Reaction Biology Corp
T37 sequence (Q13976 whole entry): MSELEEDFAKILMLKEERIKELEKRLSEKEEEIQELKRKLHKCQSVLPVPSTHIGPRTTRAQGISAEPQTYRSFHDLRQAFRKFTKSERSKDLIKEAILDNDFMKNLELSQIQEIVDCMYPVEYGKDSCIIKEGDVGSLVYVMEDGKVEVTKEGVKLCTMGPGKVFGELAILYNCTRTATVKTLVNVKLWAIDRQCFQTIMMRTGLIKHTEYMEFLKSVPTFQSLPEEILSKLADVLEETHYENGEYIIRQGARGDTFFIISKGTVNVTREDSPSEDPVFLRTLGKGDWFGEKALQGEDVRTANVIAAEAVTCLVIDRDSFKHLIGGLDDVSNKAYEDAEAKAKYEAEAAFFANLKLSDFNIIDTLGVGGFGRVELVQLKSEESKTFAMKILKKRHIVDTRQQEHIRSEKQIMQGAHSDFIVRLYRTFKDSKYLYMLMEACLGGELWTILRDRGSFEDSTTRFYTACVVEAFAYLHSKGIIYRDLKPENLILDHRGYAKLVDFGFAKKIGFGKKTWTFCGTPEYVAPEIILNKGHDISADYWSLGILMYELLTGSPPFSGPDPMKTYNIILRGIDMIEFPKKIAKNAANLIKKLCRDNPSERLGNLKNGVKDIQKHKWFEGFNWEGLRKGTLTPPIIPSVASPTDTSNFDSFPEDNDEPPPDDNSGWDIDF
Protocol: as §1

[38] = molecular target: T38, PRKG2 (Homo sapiens, UniProt Q13237)
T38 construct: purchased Reaction Biology Corp
Protocol: as §1

[39] = molecular target: T39, ROCK2 (Homo sapiens, UniProt O75116)
T39 construct: purchased Reaction Biology Corp
Protocol: as §1

[40] = molecular target: T40, SGK2 (Homo sapiens, UniProt Q9HBY8)
T40 construct: purchased Reaction Biology Corp
Protocol: as §1

[41] = molecular target: T41, SLK (Homo sapiens, UniProt Q9H2G2)
T41 construct: purchased Reaction Biology Corp
T41 sequence (Q9H2G2 whole entry): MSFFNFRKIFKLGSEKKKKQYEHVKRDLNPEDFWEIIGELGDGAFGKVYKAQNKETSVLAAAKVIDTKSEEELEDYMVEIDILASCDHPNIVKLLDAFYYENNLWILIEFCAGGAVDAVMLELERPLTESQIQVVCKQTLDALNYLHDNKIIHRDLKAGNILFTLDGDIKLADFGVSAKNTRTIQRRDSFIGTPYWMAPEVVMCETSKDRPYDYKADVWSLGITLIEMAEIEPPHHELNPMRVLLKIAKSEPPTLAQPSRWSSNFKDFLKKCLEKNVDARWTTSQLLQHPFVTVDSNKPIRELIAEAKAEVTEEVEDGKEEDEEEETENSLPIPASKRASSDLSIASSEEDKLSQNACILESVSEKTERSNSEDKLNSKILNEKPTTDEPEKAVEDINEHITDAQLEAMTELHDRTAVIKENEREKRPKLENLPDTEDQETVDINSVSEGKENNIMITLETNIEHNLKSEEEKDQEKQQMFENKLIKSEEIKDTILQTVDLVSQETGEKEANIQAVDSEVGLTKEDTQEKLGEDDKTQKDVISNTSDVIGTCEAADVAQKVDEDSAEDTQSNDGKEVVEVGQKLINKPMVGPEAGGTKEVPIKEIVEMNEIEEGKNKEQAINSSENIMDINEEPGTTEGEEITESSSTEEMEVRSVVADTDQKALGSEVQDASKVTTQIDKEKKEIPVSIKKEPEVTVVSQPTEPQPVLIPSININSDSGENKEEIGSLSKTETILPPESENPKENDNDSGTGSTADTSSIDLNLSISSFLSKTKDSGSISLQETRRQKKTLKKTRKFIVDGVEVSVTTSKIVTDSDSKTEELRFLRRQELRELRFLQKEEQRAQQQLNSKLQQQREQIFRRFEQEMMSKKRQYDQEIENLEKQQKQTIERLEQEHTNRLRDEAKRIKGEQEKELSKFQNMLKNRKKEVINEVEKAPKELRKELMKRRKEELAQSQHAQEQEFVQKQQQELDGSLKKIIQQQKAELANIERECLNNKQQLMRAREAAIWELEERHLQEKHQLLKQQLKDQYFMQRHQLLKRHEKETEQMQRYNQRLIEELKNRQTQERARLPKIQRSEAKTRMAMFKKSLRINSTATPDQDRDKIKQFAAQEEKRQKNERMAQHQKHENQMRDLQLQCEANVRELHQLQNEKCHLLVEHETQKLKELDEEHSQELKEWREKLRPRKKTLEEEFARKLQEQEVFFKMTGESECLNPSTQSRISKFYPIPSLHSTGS
Protocol: as §1

[42] = molecular target: T42, SYK (Homo sapiens, UniProt P43405)
T42 construct: purchased Reaction Biology Corp
Protocol: as §1

[43] = molecular target: T43, TLK1 (Homo sapiens, UniProt Q9UKI8)
T43 construct: purchased Reaction Biology Corp
Protocol: as §1

[44] = molecular target: T44, TSSK2 (Homo sapiens, UniProt Q96PF2)
T44 construct: purchased Reaction Biology Corp
T44 sequence (Q96PF2 whole entry): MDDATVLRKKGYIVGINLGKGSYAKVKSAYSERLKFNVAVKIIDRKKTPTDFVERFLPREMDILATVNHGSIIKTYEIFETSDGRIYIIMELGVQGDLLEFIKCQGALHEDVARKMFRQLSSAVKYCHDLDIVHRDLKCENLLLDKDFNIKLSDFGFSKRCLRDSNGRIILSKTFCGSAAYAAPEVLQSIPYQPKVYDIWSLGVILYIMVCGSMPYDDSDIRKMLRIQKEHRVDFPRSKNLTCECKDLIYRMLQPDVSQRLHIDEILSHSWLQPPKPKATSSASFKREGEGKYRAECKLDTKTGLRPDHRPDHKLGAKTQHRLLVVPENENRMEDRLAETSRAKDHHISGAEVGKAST
Protocol: as §1

With CCn1cnc2c(NCc3ccc(-c4ccccn4)nc3)nc(-c3ccc(N)nc3)nc21 [Compound 30d, N-([2,2′-Bipyridin]-5-ylmethyl)-2-(6-aminopyridin-3-yl)-9-ethyl-9H-purin-6-amine] the remaining activity at 10 µM [1] was 79.5%, the remaining activity at 10 µM [2] was 60.8% and the remaining activity at 10 µM [3] was 46.6%. For the same compound, the remaining activity at 10 µM [4] was 54.3%, the remaining activity at 10 µM [5] was 18.7% and the inhibition at 10 µM [6] was > 95%. For the same compound, the remaining activity at 10 µM [6] was 3.8%, the remaining activity at 10 µM [7] was 28.7% and the remaining activity at 10 µM [8] was 89.3%. The remaining activity at 10 µM [9] was 42.3%, the inhibition at 10 µM [10] was > 95% and the remaining activity at 10 µM [10] was 3.6%. It also gave a remaining activity at 10 µM [11] of 74.2%, a remaining activity at 10 µM [12] of 33.7% and a remaining activity at 10 µM [13] of 54.6%. It also gave a remaining activity at 10 µM [14] of 36.3%, a remaining activity at 10 µM [15] of 102% and a remaining activity at 10 µM [16] of 88.3%. It also gave a remaining activity at 10 µM [17] of 43.9%, a remaining activity at 10 µM [18] of 61.7% and a remaining activity at 10 µM [19] of 77.4%. The remaining activity at 10 µM [20] was 17.7%, the remaining activity at 10 µM [21] was 103% and the remaining activity at 10 µM [22] was 88.3%. For the same compound, the remaining activity at 10 µM [23] was 103%, the remaining activity at 10 µM [24] was 149% and the remaining activity at 10 µM [25] was 109%. For the same compound, the remaining activity at 10 µM [26] was 60%, the remaining activity at 10 µM [27] was 68.1% and the remaining activity at 10 µM [28] was 91.1%. For the same compound, the remaining activity at 10 µM [29] was 93.2%, the remaining activity at 10 µM [30] was 76% and the remaining activity at 10 µM [31] was 29.1%. For the same compound, the remaining activity at 10 µM [32] was 56.9%, the remaining activity at 10 µM [33] was 97.8% and the remaining activity at 10 µM [34] was 93.8%. For the same compound, the remaining activity at 10 µM [35] was 39.6%, the remaining activity at 10 µM [36] was 68.3% and the remaining activity at 10 µM [37] was 108%. For the same compound, the remaining activity at 10 µM [38] was 99.5%, the remaining activity at 10 µM [39] was 92.3% and the remaining activity at 10 µM [40] was 84.7%. It also gave a remaining activity at 10 µM [41] of 69.5%, a remaining activity at 10 µM [42] of 48.4% and a remaining activity at 10 µM [43] of 67.8%. The remaining activity at 10 µM [44] was 85.3%.
